Patent publication US6420586B1 (priority 2000, dated 2002)

Tests used:
Format in all cases: biochemical
[1] = test system: Herpes Simplex Virus Protease
[2] = target: T1, HIV protease (Human immunodeficiency virus type 1 group M subtype B, UniProt P04585)
T1 construct: a key virally encoded protease enzyme of the pol gene

[3] = target: T2, human cathepsin K (Homo sapiens, UniProt P43235); experiment: Inhibition of human cathepsin K (fluorescence peptide assay); details: compound concentration 106 μmolar; pH 5.5, 10 μmolar peptide
T2 sequence (P43235 115-329): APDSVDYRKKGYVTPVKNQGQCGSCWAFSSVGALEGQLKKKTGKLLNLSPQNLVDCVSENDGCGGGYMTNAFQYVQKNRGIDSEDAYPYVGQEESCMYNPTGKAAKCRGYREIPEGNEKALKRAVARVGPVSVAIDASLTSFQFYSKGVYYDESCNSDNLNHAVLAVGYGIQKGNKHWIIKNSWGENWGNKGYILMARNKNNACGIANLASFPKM
Protocol: The inhibition of human cathepsin K by the compound shown in Scheme N (106 μmolar) was determined. The peptides utilized were chromophoric Z-Phe-Arg-pNA*HCl and fluorogenic Z-Phe-Arg-AMC (each available from BACHEM Bioscience, Inc.). Stock solutions were prepared with 100% dimethylsulfoxide (DMSO) and stored at −20° C.
The final assay conditions were 100 mM NaOAc, pH of 5.5, 10 mM (R,R)-dithiothreitol (DTT), 10% DMSO, 120 mM NaCl, 10 μmolar of the peptide, and 12.5-0.012 μmolar inhibitor in twofold serial dilutions from 20× stocks in 100% DMSO. The enzyme working solution was a 1:3000 dilution of […] human cathepsin K into 100 mM of NaOAc, pH of 5.5, 10 mM DTT, 1.2 M NaCl.
Serial dilutions were performed in 100% DMSO. Columns 2-12 of an intermediate plate were filled with […] of 100% DMSO and column 1 was filled with […]. Next, […] of a 10 mM solution was added to column 1. A twofold serial dilution was prepared in columns 1-11 of the intermediate plate by sequential transfer of […] of the contents of each well in a column to the corresponding well of the next column, with mixing between each transfer. […] The fluorescence was monitored every 6 minutes for 72 minutes using a CytoFluor Series 4000 PerSeptive Biosystems multi-well fluorescence plate reader with the following settings: gain=50; 20 reads/well; 32° C.; lex=360±20 nm; and lem=440±120 nm.

SMILES	inhibition of the protease [1] [%]	inhibition of the protease [2] [%]	inhibition of human cathepsin K [3] [%]
COP1(=O)N(Cc2ccccc2)CC=CCN1Cc1ccccc1 [Scheme K]	25.5		
C=CCOP1(=O)OCC=CCN1[C@H](C(=O)OC)C(C)C (stereo partly drawn) [Scheme L]	34.7		
COP1(=O)N[C@@H](C(C)C)C=C[C@H](C(C)C)O1 (stereo partly drawn) [Scheme M]	33.5		
CC(C)(C)OC(=O)NC(Cc1ccccc1)CN1CC=CCN(C[C@H](Cc2ccccc2)NC(=O)OC(C)(C)C)P1(=O)Cl (stereo partly drawn) [Scheme N]	44.4	23	34
